Like-named read-outs stand apart in the source and are kept apart here.
Key:
[1] = test system: ICAM-1 expression in HT-29 cells; test: Measurement of ICAM-1 expressing activity (TNFα-induced ICAM-1 expression, cell ELISA); format: cell-based; conditions: Homo sapiens, Table 6, cell activity inhibition test by method (3), read-out: EVALUATION (IC50 class, inhibition of cell activity)
Outline: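 Cell ELISA read-out (anti-ICAM-1, peroxidase secondary, TMBZ, A450) after methanol fixation. Before that, HT-29 cells had 30 min compound exposure at 37°C (final DMSO 0.5%) followed by 4 h with 30 ng/mL human TNFα.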

[2] = target: T1, IκBα ubiquitinating enzyme (SCF complex: ROC1, Cullin1, Skp1, His-TrCP1; with E1, UbcH5b) (Homo sapiens, UniProt P62877+P63208+Q13616+Q9Y297); test: Measurement of ubiquitinating enzyme activity (IκBα ubiquitination, time-resolved fluorescence with Eu(K)-labeled ubiquitin and XL665-labeled anti-GST antibody); format: biochemical
T1 construct: His (polyhistidine); made in house; host or cells: insect cells (baculovirus) for the SCF complex and His-E1; E. coli for His-UBCH5b
T1 sequence (Q9Y297 whole entry): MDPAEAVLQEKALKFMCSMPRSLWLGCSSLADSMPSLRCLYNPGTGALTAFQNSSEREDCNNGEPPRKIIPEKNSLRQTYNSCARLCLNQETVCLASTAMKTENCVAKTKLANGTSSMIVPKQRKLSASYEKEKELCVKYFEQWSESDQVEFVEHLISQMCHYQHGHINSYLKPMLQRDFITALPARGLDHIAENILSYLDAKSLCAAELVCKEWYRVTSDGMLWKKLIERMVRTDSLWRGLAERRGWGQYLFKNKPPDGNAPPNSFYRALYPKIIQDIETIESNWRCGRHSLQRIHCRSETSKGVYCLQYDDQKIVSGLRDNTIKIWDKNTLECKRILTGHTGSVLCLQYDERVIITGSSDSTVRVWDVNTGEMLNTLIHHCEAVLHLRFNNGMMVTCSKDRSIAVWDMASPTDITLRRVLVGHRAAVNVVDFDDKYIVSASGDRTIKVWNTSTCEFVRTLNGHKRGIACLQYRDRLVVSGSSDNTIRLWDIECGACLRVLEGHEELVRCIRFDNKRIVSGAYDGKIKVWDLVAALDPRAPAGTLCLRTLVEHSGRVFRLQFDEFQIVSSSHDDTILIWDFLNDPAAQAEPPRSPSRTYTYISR
T1 sequence (Q13616 whole entry): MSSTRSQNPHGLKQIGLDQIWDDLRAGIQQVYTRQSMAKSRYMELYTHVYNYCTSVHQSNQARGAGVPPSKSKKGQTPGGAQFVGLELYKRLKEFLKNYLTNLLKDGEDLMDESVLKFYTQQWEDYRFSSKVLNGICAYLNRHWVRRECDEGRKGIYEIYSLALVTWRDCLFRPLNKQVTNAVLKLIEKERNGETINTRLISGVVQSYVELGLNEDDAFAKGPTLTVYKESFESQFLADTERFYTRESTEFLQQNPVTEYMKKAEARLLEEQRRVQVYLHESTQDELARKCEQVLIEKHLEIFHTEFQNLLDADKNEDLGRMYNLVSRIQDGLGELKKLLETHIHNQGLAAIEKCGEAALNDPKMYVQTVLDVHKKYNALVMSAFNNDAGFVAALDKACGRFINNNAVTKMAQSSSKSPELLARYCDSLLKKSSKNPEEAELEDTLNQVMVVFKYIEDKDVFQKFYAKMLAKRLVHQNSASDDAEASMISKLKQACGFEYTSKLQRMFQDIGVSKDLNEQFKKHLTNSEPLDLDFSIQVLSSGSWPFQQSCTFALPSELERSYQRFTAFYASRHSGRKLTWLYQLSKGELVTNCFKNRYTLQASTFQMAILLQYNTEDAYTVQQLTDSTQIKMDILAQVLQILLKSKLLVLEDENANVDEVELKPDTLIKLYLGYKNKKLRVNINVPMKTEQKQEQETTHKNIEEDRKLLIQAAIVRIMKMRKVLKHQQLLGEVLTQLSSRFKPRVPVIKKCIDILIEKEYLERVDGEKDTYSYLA
T1 sequence (P63208 whole entry): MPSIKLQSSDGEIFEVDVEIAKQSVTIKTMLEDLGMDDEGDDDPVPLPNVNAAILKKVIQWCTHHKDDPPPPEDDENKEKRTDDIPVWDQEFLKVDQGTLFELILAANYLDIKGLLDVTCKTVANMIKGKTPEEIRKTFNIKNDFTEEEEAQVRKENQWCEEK
T1 sequence (P62877 whole entry): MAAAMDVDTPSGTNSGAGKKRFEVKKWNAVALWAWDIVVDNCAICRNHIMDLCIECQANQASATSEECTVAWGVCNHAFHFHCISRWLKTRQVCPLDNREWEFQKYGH
Outline: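 Human SCF complex with E1 and UbcH5b ubiquitinated GST-IκBα pre-phosphorylated by IKKβ (2 mM ATP, pH 7.4, 1 h, RT), with Eu(K)-ubiquitin, 30 min RT. Stopped with EDTA, XL665 anti-GST added for 2 h; 665/620 nm TR-FRET ratio. % inhibition versus no-compound control and no-SCF blank gave IC50.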

[3] = enzyme activity inhibition test, method (1), Table 5, read-out: EVALUATION

| IC50 [1] [µM] | IC50 [2, 3] [µM] | SMILES | IC50 [2] [µM] | IC50 ([2]; read-out: EVALUATION, enzyme activity inhibition test, method (1), Table 5) [µM] |
| --- | --- | --- | --- | --- |
| 10 to 20 | < 10 | CC1=NN(c2cccc(C(=O)N3CCCC3CO)c2)C(=O)/C1=C\c1ccc2[nH]ccc2c1 (stereo not drawn) [Compound 372] | – | – |
| < 40 | < 10 | CC1=NN(c2cccc(C(=O)N3CCC(O)CC3)c2)C(=O)/C1=C\c1ccc2[nH]ccc2c1 [Compound 373] | – | – |
| < 40 | < 10 | CC1=NN(c2cccc(C(=O)N3CCN(c4ccc(O)cc4)CC3)c2)C(=O)/C1=C\c1ccc2[nH]ccc2c1 [Compound 375] | – | – |
| < 40 | < 10 | CC1=NN(c2cccc(C(=O)N3CCCC(C(=O)O)C3)c2)C(=O)/C1=C\c1ccc2[nH]ccc2c1 (stereo not drawn) [Compound 376] | – | – |
| < 40 | 10 to 20 | CC1=NN(c2ccc(C(=O)N3CCC(CO)CC3)cc2)C(=O)/C1=C\c1ccc2c(c1)OCCO2 [Compound 387] | – | – |
| 10 to 20 | < 10 | COc1cc(/C=C2\C(=O)N(c3ccc(C(=O)O)cc3)N=C2C)ccc1OCC1CC1 [Compound 390] | – | – |
| 10 to 20 | < 10 | COc1cc(/C=C2\C(=O)N(c3ccc(C(=O)O)cc3)N=C2C)ccc1OCc1c(C)noc1C [Compound 391] | – | – |
| 10 to 20 | < 10 | CCOC(=O)c1ccc(COc2ccc(/C=C3\C(=O)N(c4ccc(C(=O)O)cc4)N=C3C)cc2OC)o1 [Compound 392] | – | – |
| < 40 | 10 to 20 | COc1cc(/C=C2\C(=O)N(c3cccc(C(=O)O)c3)N=C2C)ccc1OCC1CCCCC1 [Compound 407] | – | – |
| 10 to 20 | < 10 | CC1=NN(c2ccc(C(=O)N3CCCC3CO)cc2)C(=O)/C1=C\c1ccc2c(c1)OCCO2 (stereo not drawn) [Compound 410] | – | – |
| < 40 | < 10 | CC1=NN(c2cccc(C(=O)N3CCOCC3)c2)C(=O)/C1=C\c1ccc2c(c1)OCCO2 [Compound 411] | – | – |
| 10 to 20 | 10 to 20 | CC1=NN(c2ccc(C(=O)N(C)CCO)cc2)C(=O)/C1=C\c1ccc2c(c1)OCCO2 [Compound 412] | – | – |
| 10 to 20 | < 10 | CC1=NN(c2ccc(C(=O)N3CCC(O)C3)cc2)C(=O)/C1=C\c1ccc2c(c1)OCCO2 (stereo not drawn) [Compound 413] | – | – |
| < 40 | < 10 | CC1=NN(c2cccc(C(=O)O)c2)C(=O)C1=Cc1ccc(N2CCN(c3ccccc3)CC2)cc1 [Compound 423] | – | – |
| 10 to 20 | < 10 | CC1=NN(c2cccc(C(=O)O)c2)C(=O)/C1=C\c1ccc([N+](=O)[O-])o1 [Compound 425] | – | – |
| < 40 | < 10 | CC1=NN(c2ccc(C(=O)O)cc2)C(=O)/C1=C\c1cc2ccccc2o1 [Compound 429] | – | – |
| < 40 | < 10 | CCCCC1=NN(c2ccc(C(=O)O)cc2)C(=O)/C1=C\c1ccc(N2CCN(c3ccccc3)CC2)cc1 [Compound 434] | – | – |
| < 40 | 10 to 20 | CC1=NN(c2ccc(C(=O)O)cc2)C(=O)/C1=C\c1ccc(N2CCN(C(=O)OC(C)(C)C)CC2)cc1 [Compound 436] | – | – |
| < 40 | 10 to 20 | CC1=NN(c2cccc(C(=O)O)c2)C(=O)/C1=C\c1ccc(N2CCN(C(=O)OC(C)(C)C)CC2)cc1 [Compound 437] | – | – |
| 10 to 20 | < 10 | CC1=NN(c2cccc(C(=O)O)c2)C(=O)/C1=C\c1ccc(N2CCN(C(=O)c3ccccc3)CC2)cc1 [Compound 440] | – | – |
| < 40 | < 10 | CC1=NN(c2cccc(C(=O)O)c2)C(=O)/C1=C\c1ccc(N2CCOCC2)cc1 [Compound 441] | – | – |
| < 40 | < 10 | CC(=O)N1CCN(c2ccc(/C=C3\C(=O)N(c4cccc(C(=O)O)c4)N=C3C)cc2)CC1 [Compound 442] | – | – |
| 10 to 20 | < 10 | CCCCC1=NN(c2ccc(C(=O)O)cc2)C(=O)/C1=C\c1ccc(N2CCC(CO)CC2)cc1 [Compound 443] | – | – |
| 10 to 20 | < 10 | CC1=NN(c2ccc(C(=O)O)cc2)C(=O)/C1=C\c1ccc(N2CCN(c3ccc(F)cc3)CC2)cc1 [Compound 448] | – | – |
| 10 to 20 | < 10 | CC1=NN(c2cccc(C(=O)O)c2)C(=O)/C1=C\c1ccc(N2CCN(c3ccc(F)cc3)CC2)cc1 [Compound 449] | – | – |
| < 40 | < 10 | CC1=NN(c2ccc(C(=O)O)cc2)C(=O)/C1=C\c1ccc(-c2cccc(Cl)c2)o1 [Compound 454] | – | – |

| IC50 [1] [µM] | IC50 [2, 3] [µM] | SMILES | IC50 [2] [µM] | IC50 ([2]; read-out: EVALUATION, enzyme activity inhibition test, method (1), Table 5) [µM] |
| --- | --- | --- | --- | --- |
| < 10 | < 10 | CC1=NN(c2ccc(C(=O)O)cc2)C(=O)/C1=C\c1ccc(-c2ccccc2Cl)o1 [Compound 456] | – | – |
| < 40 | 10 to 20 | COCC1=NN(c2ccc(C(=O)O)cc2)C(=O)/C1=C\c1ccc2c(c1)OCO2 [Compound 464] | – | – |
| 10 to 20 | 10 to 20 | CC1=NN(c2cccc(C(=O)O)c2)C(=O)/C1=C\c1ccc(N2CCCC2)cc1 [Compound 472] | – | – |
| < 40 | 10 to 20 | CCCCC1=NN(c2cccc(C(=O)O)c2)C(=O)/C1=C\c1ccc2c(c1)OCO2 [Compound 473] | – | – |
| < 40 | < 10 | CCCCC1=NN(c2ccc(C(=O)O)cc2)C(=O)/C1=C\c1ccc2[nH]ccc2c1 [Compound 474] | – | – |
| < 40 | < 10 | O=C(O)c1ccc(N2N=C(c3ccoc3)/C(=C/c3ccc4[nH]ccc4c3)C2=O)cc1 [Compound 477] | – | – |
| 10 to 20 | 10 to 20 | O=C(O)c1cccc(N2N=C(c3ccoc3)/C(=C/c3ccc(N4CCCC4)cc3)C2=O)c1 [Compound 478] | – | – |
| 10 to 20 | 10 to 20 | CCCCC1=NN(c2cccc(C(=O)O)c2)C(=O)/C1=C\c1ccc(N2CCCC2)cc1 [Compound 479] | – | – |
| < 40 | < 10 | CCCCC1=NN(c2cccc(C(=O)O)c2)C(=O)/C1=C\c1ccc2[nH]ccc2c1 [Compound 481] | – | – |
| < 40 | < 10 | O=C(O)c1ccc(N2N=C(C3CC3)/C(=C/c3ccc4[nH]ccc4c3)C2=O)cc1 [Compound 482] | – | – |
| 10 to 20 | < 10 | COc1ccccc1-c1ccc(/C=C2\C(=O)N(c3ccc(C(=O)O)cc3)N=C2c2ccoc2)o1 [Compound 483] | – | – |
| 10 to 20 | < 10 | O=C(O)c1cccc(N2N=C(c3ccoc3)/C(=C/c3ccc(-c4ccccc4F)o3)C2=O)c1 [Compound 484] | – | – |
| < 40 | < 10 | COc1ccccc1-c1ccc(/C=C2\C(=O)N(c3cccc(C(=O)O)c3)N=C2c2ccoc2)o1 [Compound 485] | – | – |
| < 40 | 10 to 20 | CC1=NN(c2cccc(C(=O)O)c2)C(=O)/C1=C\c1ccc(-c2ccccc2F)o1 [Compound 486] | – | – |
| < 10 | < 10 | Cn1cc(-c2ccc(/C=C3\C(=O)N(c4ccc(C(=O)O)cc4)N=C3c3ccoc3)o2)cn1 [Compound 489] | – | – |
| 10 to 20 | < 10 | O=C(O)c1cccc(N2N=C(c3ccoc3)/C(=C/c3ccc(-c4cnn(Cc5ccccc5)c4)o3)C2=O)c1 [Compound 490] | – | – |
| 10 to 20 | < 10 | Cn1cc(-c2ccc(/C=C3\C(=O)N(c4cccc(C(=O)O)c4)N=C3c3ccoc3)o2)cn1 [Compound 491] | – | – |
| 10 to 20 | < 10 | O=C(O)c1ccc(N2N=C(c3ccoc3)/C(=C/c3ccc(-c4cnn(Cc5ccccc5)c4)o3)C2=O)cc1 [Compound 492] | – | – |
| < 40 | < 10 | CC1=NN(c2cccc(C(=O)O)c2)C(=O)/C1=C\c1ccc2c(ccn2Cc2ccccc2)c1 [Compound 494] | – | – |
| < 40 | < 10 | CC1=NN(c2ccc(C(=O)O)cc2)C(=O)/C1=C\c1ccc2c(ccn2Cc2cc(C)on2)c1 [Compound 496] | – | – |
| 10 to 20 | < 10 | CC1=NN(c2ccc(C(=O)O)cc2)C(=O)/C1=C\c1ccc2c(ccn2Cc2c(C)noc2C)c1 [Compound 497] | – | – |
| < 40 | < 10 | CC1=NN(c2ccc(C(=O)O)cc2)C(=O)/C1=C\c1ccc2c(ccn2CC2CCCCC2)c1 [Compound 498] | – | – |
| < 40 | < 10 | CC1=NN(c2cccc(C(=O)O)c2)C(=O)/C1=C\c1ccc2c(ccn2CC2CC2)c1 [Compound 499] | – | – |
| < 40 | < 10 | CC1=NN(c2ccc(C(=O)O)cc2)C(=O)/C1=C\c1ccc2c(ccn2Cc2csc(C)n2)c1 [Compound 500] | – | – |
| < 10 | < 10 | COc1cccc(-c2ccc(/C=C3\C(=O)N(c4ccc(C(=O)O)cc4)N=C3C)o2)c1 [Compound 501] | – | – |
| < 10 | < 10 | CC(=O)c1ccc(-c2ccc(/C=C3\C(=O)N(c4ccc(C(=O)O)cc4)N=C3C)o2)cc1 [Compound 502] | – | – |

| SMILES | IC50 [1] [µM] | IC50 [2, 3] [µM] | IC50 [2] [µM] | IC50 ([2]; read-out: EVALUATION, enzyme activity inhibition test, method (1), Table 5) [µM] |
| --- | --- | --- | --- | --- |
| CC1=NN(c2cccc(C(=O)O)c2)C(=O)C1=Cc1cc2ccccc2o1 [Compound 428] | < 40 | – | 10 to 20 | – |
| CC1=NN(c2ccc(C(=O)O)cc2)C(=O)C1=Cc1ccc(N2CCN(c3ccccc3)CC2)cc1 [Compound 430] | < 10 | – | < 10 | – |
| O=C(O)c1ccc(N2N=C(c3ccoc3)C(=Cc3ccc(N4CCN(c5ccccc5)CC4)cc3)C2=O)cc1 [Compound 433] | < 10 | – | < 10 | – |
| O=C(O)c1cccc(N2N=C(c3ccoc3)C(=Cc3ccc4[nH]ccc4c3)C2=O)c1 [Compound 475, 3-(3-Furan-3-yl-4-(1H-indol-ylmethylene)-5-oxo-4,5-dihydropyrazol-1-yl) benzoic acid] | 10 to 20 | – | – | < 10 |
| CCCCC1=NN(c2ccc(C(=O)O)cc2)C(=O)C1=Cc1ccc2c(c1)OCO2 [Compound 480] | 10 to 20 | – | < 10 | – |

Reference: patent publication EP1900728A1 (Genecare Research Institute Co., Ltd, priority 2005, dated 2006)
